Laboratory results as given in patent publication US5233050A, “Antimigraine alkyl indole” (Merck & Co., Inc., priority 1992, dated 1993).

Assays:
5-HT2 = target: T1, 5-HT2 (Rattus norvegicus, UniProt P14842); assay: 5-HT2 radioligand binding assay; conditions: mean of triplicates
T1 construct: from tissue; host or cells: rat cortical membranes (inferred from the cited Titeler et al)
Method: (§1) 5-HT1D radioligand binding assay was carried out according to Heuring and Peroutka (Heuring, R. E., and Peroutka, S. J., J. Neurosci., 7:894-903, 1987) with slight modifications as follows. Polypropylene tubes containing ^3 H-5HT (2 nM), cyanopindolol (100 nM), mesulergine (100 nM) and crude pig striatal membranes (10 mg wet weight per tube) in a final assay volume of 1 ml were used. All reagents and tissues were made up in […] Tris. HCl containing 0.1% ascorbate, 10 μM pargyline and 4 mM CaCl2 (pH 7.7 at room temperature). 5-HT (10 μM) was used to define non-specific binding. The incubation was initiated by the addition of membranes and carried out for 30 minutes at 37° C. Following incubation, membranes were rapidly filtered under vacuum through Whatmann GF/B filters using a Brandel Cell Harvester, followed by 2×3 ml washes with 50 mM Tris. HCl (pH 7.7 at room temperature). Bound radioactivity was determined by liquid scintillation spectrometry. 5-HT1A and 5-HT2 radioligand binding assays were performed according to Hall, et al., J. Neurochem., 44, 1685-1696, 1985 and Titeler, et al., Eur. J. Pharmacol., 117, 145-146, 1987, respectively.

5-HT1D = 5-HT1D radioligand binding assay (3H-5HT, crude pig striatal membranes); conditions: for % inhibition of binding, 5-HT1D: mean of triplicates
Method: as §1

5-HT1A = target: T2, 5-HT1A (Rattus norvegicus, UniProt P19327); assay: 5-HT1A radioligand binding assay
T2 construct: from tissue
T2 sequence (P19327 1-422): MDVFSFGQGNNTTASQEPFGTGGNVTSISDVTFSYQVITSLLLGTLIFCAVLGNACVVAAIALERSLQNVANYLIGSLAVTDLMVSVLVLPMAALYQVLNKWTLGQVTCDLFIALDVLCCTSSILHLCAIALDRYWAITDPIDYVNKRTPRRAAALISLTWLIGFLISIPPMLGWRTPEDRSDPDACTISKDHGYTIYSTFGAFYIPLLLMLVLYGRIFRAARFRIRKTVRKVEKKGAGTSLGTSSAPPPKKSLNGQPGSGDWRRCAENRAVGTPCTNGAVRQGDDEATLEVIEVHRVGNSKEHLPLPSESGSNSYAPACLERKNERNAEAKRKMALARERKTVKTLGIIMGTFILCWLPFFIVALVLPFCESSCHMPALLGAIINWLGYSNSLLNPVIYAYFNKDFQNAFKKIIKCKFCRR
Method: as §1

T1 sequence (P14842 whole entry): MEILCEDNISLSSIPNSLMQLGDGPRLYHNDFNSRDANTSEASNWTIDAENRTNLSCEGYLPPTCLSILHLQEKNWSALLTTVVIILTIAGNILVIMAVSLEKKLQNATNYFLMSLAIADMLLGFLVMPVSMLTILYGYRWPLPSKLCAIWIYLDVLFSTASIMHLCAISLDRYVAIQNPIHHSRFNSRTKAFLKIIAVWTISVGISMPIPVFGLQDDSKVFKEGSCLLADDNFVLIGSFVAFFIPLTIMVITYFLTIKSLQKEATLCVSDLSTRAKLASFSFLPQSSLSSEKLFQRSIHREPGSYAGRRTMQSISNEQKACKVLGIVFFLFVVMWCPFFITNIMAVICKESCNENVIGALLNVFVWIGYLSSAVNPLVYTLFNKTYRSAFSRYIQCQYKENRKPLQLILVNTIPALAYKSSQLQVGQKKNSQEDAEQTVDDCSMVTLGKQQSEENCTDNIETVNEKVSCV

| Structure (SMILES) | inhibition at 4.1 µM (5-HT2; 4.1 μM) [%] | inhibition at 41 µM (5-HT2; 41 μM) [%] | % inhibition of binding, 5-HT1D (5-HT1D; 4.1 μM) [%] | % inhibition of binding, 5-HT1D (5-HT1D; 41 μM) [%] | inhibition at 4.1 µM (5-HT1A; 4.1 μM, mean of triplicates) [%] | inhibition at 41 µM (5-HT1A; 41 μM, mean of triplicates) [%] | affinity for 5-HT1A relative to 5-HT1D and 5-HT2 (5-HT1A; 5-HT1A versus 5-HT1D and 5-HT2) | rank order of affinity for these subtypes (5-HT1D; 5-HT1D, 5-HT1A, 5-HT2, for comparison) | pIC50, 5-HT1D (5-HT1D; for comparison) | IC50 (5-HT1A) [nM] |
| --- | --- | --- | --- | --- | --- | --- | --- | --- | --- | --- |
| C=CC(C)(C)n1cc(CN(C)C)c2ccccc21 [Compound I, 1-(1,1-dimethylallyl)-3-dimethylaminomethylindole] | 42 | 86 | 44 | 81 | 20 | 62 | less affinity for 5-HT1A than for 5-HT1D and 5-HT2 receptor subtypes | – | – | – |
| CNS(=O)(=O)Cc1ccc2[nH]cc(CCN(C)C)c2c1 [sumatriptan, reference compound] | – | – | – | – | – | – | – | 5-HT1D >5-HT1A >5-HT2 | 7.7 | 501 |
